Measurements: patent US5677342A, “Phenoxy acetic acids as aldose reductase inhibitors and antihyperglycemic agents” (American Home Products Corporation, priority 1996, dated 1997)
One block for each molecule: values may come before it.

How the values were obtained:
[1] = target: T1, bovine lens aldose reductase (Bos taurus, UniProt P16116); test: In vitro Inhibition of Aldose Reductase in the Bovine Lens; assay type: biochemical; details: DL-glyceraldehyde as substrate; for inhibition at 0.04 µM: dose 4 × 10^-8 M; for inhibition at 0.1 µM: dose 10^-7 M
T1 construct: preparation of the enzyme from bovine lens; from tissue; host or cells: bovine lens
Experimental: I. In vitro Inhibition of Aldose Reductase in the Bovine Lens
The aldose reductase inhibiting effects of the compounds of formula I were tested by employing an in vitro testing procedure similar to that described by S. Hayman and J. H. Kinoshita, J. Biol. Chem., 240, 877 (1965) wherein the abilitty of the invention compounds to inhibit bovine lens aldose reductase with DL-glyceraldehyde as the substrate was determined. In the present case the procedure of Hayman and Kinoshita was modified in that the final chromatography step was omitted in the preparation of the enzyme from bovine lens.

diabetic db/db mice = test: Determination of Blood Glucose Lowering in Diabetic db/db Mice; assay type: in vivo, male diabetic db/db (C57BL/KsJ) mice; details: p.o.; for plasma glucose lowering compared with ciglitazone / % Change glucose: 100 mg/kg; for plasma glucose lowering compared with ciglitazone: in words; for % Change glucose: plasma glucose Day 4 (mean of 2 and 4 hr samples) vs Day 1 baseline
Experimental: 2. Determination of Blood Glucose Lowering in Diabetic db/db Mice. On the morning of Day 1, 35 mice [male diabetic db/db (C57BL/KsJ) mice (Jackson Laboratories), 2-7 months of age and 50-70 g] were fasted for 4 hours, weighed and a baseline blood sample (15-30 μl) was collected from the tail-tip of each mouse without anesthesia, and placed directly into a fluoride-containing tube, mixed and maintained on ice. Food was then returned to the mice. The plasma was separated and levels of glucose in plasma determined by the Abbott VP Analyzer. Because of the variable plasma glucose levels of the db/db mice, 5 mice having the most extreme (i.e., highest or lowest) plasma glucose levels were excluded and the remaining 30 mice were randomly assigned into 7 groups of equivalent mean plasma glucose levels (N=6 for vehicle and N=4 for each drug group). On the afternoon of Days 1, 2 and 3, the vehicle, control or test drugs were administered (p.o.) to the ad libitum fed mice. On the morning of Day 4, the mice were weighed and food removed, but water was available ad libitum. Three hours later, a blood sample was collected and then the mice were given the fourth administration of drug or vehicle. Blood samples were collected again from the unanesthetized mice at 2 and 4 hours after drug administration. The plasma was separated and levels of glucose in plasma was determined by the Abbott VP Analyzer. For each mouse, the percent change of its plasma glucose level on Day 4 (mean of the 2 and 4 hr samples) from respective level before drug administration (Day 1 baseline sample) is determined as follows: [formula] Analysis of variance followed by Dunnett's multiple comparison (one-sided) will be used to estimate the 'degree of statistical significance of the difference between the vehicle control group and the individual drug-treated groups. A drug will be considered active, at the specific dosage administered, if the difference of the plasma glucose level has a p<0.05.

ob/ob mice = test: Determination of Blood Glucose Lowering Effect in ob/ob mice; assay type: in vivo, ob/ob mice (C57B1/6J); details: 100 mg/kg, p.o.
Experimental: 3. Determination of Blood Glucose Lowering Effect in ob/ob mice
Male or female ob/ob mice (C57B1/6J), ages 2 to 5 months (10 to 65 g), of a similar age are randomized according to plasma glucose into 4 groups of 10 mice. The mice are housed 5 per cage and are maintained on normal rodent chow with water ad libitum. The mice receive test compound daily. The test compound is suspended in 0.5 mL of 0.5% methyl cellulose and is administered by gavage (dissolved in drinking water) or admixed in the diet. The dose of compound given ranges from 2.5 to 200 mg/kg/day. Body weight of fed animals is measured at the beginning of each week and doses for the entire week are calculated using this weight and are expressed in terms of the active moiety of the compound. Control mice receive vehicle only.
On the morning of Days 4, 7 or 14 two drops of blood (approximately 50 μl) are collected into sodium fluoride containing tubes either from the tail vein or after decapitation. […] The plasma is isolated by centrifugation and the concentration of glucose is measured enzymatically on an Abbott V. P. Analyzer and the plasma concentration of insulin is determined by radioimmunoassay (Heding, 1972). For each mouse, the percentage change in plasma glucose on Day 4, 7 or 14 is calculated relative to the mean plasma glucose of the vehicle treated mice. […]

inhibition at 0.04 µM [1]: 78%
Compound: O=Cc1ccc(OCC(=O)O)c(Cc2ccc3c(Cl)cccc3c2)c1O [Example 4, [2-(5-chloro-naphthalen-2-ylmethyl)-4-formyl-3-hydroxy-phenoxy]-acetic acid]

inhibition at 0.04 µM [1]: 81%
Compound: COc1cc(OCC(=O)O)c(Cc2ccc3c(Cl)cccc3c2)c(O)c1C=O [Example 8, [2-(5-chloro-naphthalen-2-ylmethyl)-4-formyl-3-hydroxy-5-methoxy-phenoxy]-acetic acid]

inhibition at 0.1 µM [1]: 36%
Compound: O=Cc1cc(Cl)c(OCC(=O)O)c(Cc2ccc3c(Cl)cccc3c2)c1O [Example 10, [6-chloro-2-(5-chloro-naphthalen-2-ylmethyl)-4-formyl-3-hydroxy-phenoxy]-acetic acid]

inhibition at 0.04 µM [1]: 84%
Compound: O=Cc1ccc(OCC(=O)O)c(Cc2ccc3c(Br)cccc3c2)c1O [Example 5, [2-(5-bromo-naphthalen-2-ylmethyl)-4-formyl-3-hydroxy-phenoxy]-acetic acid]

inhibition at 0.04 µM [1]: 83%
Compound: COc1c(C=O)ccc(OCC(=O)O)c1Cc1ccc2c(Cl)cccc2c1 [Example 7, [2-(5-chloro-naphthalen-2-ylmethyl)-4-formyl-3-methoxy-phenoxy]-acetic acid]

Second part, the molecule before the results:

Compound: O=Cc1ccc(OCC(=O)O)c(Cc2ccc3ccccc3c2)c1O [Example 2, (4-formyl-3-hydroxy-2-naphthalen-2-ylmethyl-phenoxy)-acetic acid]
inhibition at 0.1 µM [1]: 34% | plasma glucose lowering compared with ciglitazone (diabetic db/db mice): comparable with the results for ciglitazone | % Change glucose (diabetic db/db mice): -23%

Compound: O=Cc1ccc(OCC(=O)O)c(Cc2ccc3ccccc3c2Br)c1O [Example 6, [2-(1-bromo-naphthalen-2-ylmethyl)-4-formyl-3-hydroxy-phenoxy]-acetic acid]
inhibition at 0.04 µM [1]: 78%

Compound: Cc1cc(OCC(=O)O)c(Cc2ccc3c(Cl)cccc3c2)c(O)c1C=O [Example 9, [2-(5-chloro-naphthalen-2-ylmethyl)-4-formyl-3-hydroxy-5-methyl-phenoxy]-acetic acid]
inhibition at 0.04 µM [1]: 89%

Compound: O=Cc1ccc(OCC(=O)O)c(Cc2cccc3ccccc23)c1O [Example 3, (4-formyl-3-hydroxy-2-naphthalen-1-ylmethyl-phenoxy)-acetic acid]
inhibition at 1 µM ([1]; dose 10^-6 M): 53%

Compound: Cc1c(Cl)c(OCC(=O)O)c(Cc2ccc3c(Cl)cccc3c2)c(O)c1C=O [Example 1, [2-chloro-6-(5-chloro-naphthalen-2-ylmethyl)-4-formyl-5-hydroxy-3-methyl-phenoxy]-acetic acid]
inhibition at 0.04 µM [1]: 49% | plasma glucose lowering compared with ciglitazone (diabetic db/db mice): comparable with the results for ciglitazone | % Change glucose (diabetic db/db mice): -19% | % Change glucose (ob/ob mice; plasma glucose on Day 4, 7 or 14 relative to vehicle mean): -24% | % Change insulin (ob/ob mice; plasma insulin by radioimmunoassay, Day 4, 7 or 14): -38%

Compound: CC1(COc2ccc(CC3SC(=O)NC3=O)cc2)CCCCC1 (stereo not drawn) [ciglitazone, reference compound]
decrease in plasma glucose levels (average) (diabetic db/db mice; positive control, 100 mg/kg/day × 4 days, average): 26% | decrease in plasma glucose levels (diabetic db/db mice; positive control, 100 mg/kg/day × 4 days, range): 18 to 34%
